Measured values taken from the supplement of paper PMC10307832.

Legend:
Test in all cases: relative viability (nuclei count vs DMSO), 5 days (fraction); higher = more cells survive
Bortezomib + Lapatinib = compound: CC(C)C[C@H](NC(=O)[C@H](Cc1ccccc1)NC(=O)c1cnccn1)B(O)O [Bortezomib] + CS(=O)(=O)CCNCc1ccc(-c2ccc3ncnc(Nc4ccc(OCc5cccc(F)c5)c(Cl)c4)c3c2)o1 [Lapatinib] (partner 2 µM)
Procedure, shortened: (§1)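 Relative viability was taken as the ratio of nuclei in treated wells to nuclei in vehicle wells. Lung cancer cell lines in 1536-well plates received compounds by pin tool one day after seeding, either one drug alone or a fixed anchor-drug dose plus five library-drug doses (not always all listed) in √10 steps. Nuclei were counted on 4× images after 5 days of treatment, and values are medians of duplicate plates.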

Bortezomib + Dasatinib = compound: CC(C)C[C@H](NC(=O)[C@H](Cc1ccccc1)NC(=O)c1cnccn1)B(O)O [Bortezomib] + Cc1nc(Nc2ncc(C(=O)Nc3c(C)cccc3Cl)s2)cc(N2CCN(CCO)CC2)n1 [Dasatinib] (partner 0.075 µM)
Procedure, shortened: as §1

[1] = compound: CC1=CC(=NN1)NC2=CC(=NC(=N2)/C=C/C3=CC=CC=C3)N4CCN(CC4)C + O=C(CCCCCCC(=O)Nc1ccccc1)NO [Vorinostat] (partner 1 µM)
Procedure, shortened: as §1

Obatoclax + Lapatinib = compound: COC1=CC(c2cc3ccccc3[nH]2)=N/C1=C\c1[nH]c(C)cc1C [Obatoclax] + CS(=O)(=O)CCNCc1ccc(-c2ccc3ncnc(Nc4ccc(OCc5cccc(F)c5)c(Cl)c4)c3c2)o1 [Lapatinib] (partner 2 µM)
Procedure, shortened: as §1

Cell Line | relative viability (Bortezomib + Lapatinib; first compound 0.0002 µM) | relative viability (Bortezomib + Lapatinib; first compound 0.000632 µM) | relative viability (Bortezomib + Lapatinib; first compound 0.002 µM) | relative viability (Bortezomib + Lapatinib; first compound 0.006325 µM) | relative viability (Bortezomib + Lapatinib; first compound 0.02 µM) | relative viability (Bortezomib + Dasatinib; first compound 0.0002 µM) | relative viability (Bortezomib + Dasatinib; first compound 0.000632 µM) | relative viability (Bortezomib + Dasatinib; first compound 0.002 µM) | relative viability (Bortezomib + Dasatinib; first compound 0.006325 µM) | relative viability (Bortezomib + Dasatinib; first compound 0.02 µM) | relative viability ([1]; first compound 0.08 µM) | relative viability ([1]; first compound 0.253 µM) | relative viability ([1]; first compound 0.8 µM) | relative viability ([1]; first compound 2.53 µM) | relative viability ([1]; first compound 8 µM) | relative viability (Obatoclax + Lapatinib; first compound 0.01 µM) | relative viability (Obatoclax + Lapatinib; first compound 0.03162 µM) | relative viability (Obatoclax + Lapatinib; first compound 0.1 µM) | relative viability (Obatoclax + Lapatinib; first compound 0.3162 µM) | relative viability (Obatoclax + Lapatinib; first compound 1 µM)
NCI-H2085 | 0.725 | 0.759 | 0.727 | 0.382 | 0.231 | 0.31 | 0.253 | 0.207 | 0.209 | 0.241 | 0.826 | 0.95 | 0.822 | 0.322 | 0.366 | 0.808 | 0.695 | 0.686 | 0.533 | 0.394
NCI-H522 |  |  |  |  |  | 0.875 | 0.79 | 0.965 | 0.4 | 0.393 | 0.894 | 0.93 | 1.12 | 0.854 | 0.426 |  |  |  |  | 
NCI-H441 |  |  |  |  |  | 0.646 | 0.507 | 0.282 | 0.136 | 0.119 | 0.569 | 0.768 | 0.58 | 0.498 | 0.138 |  |  |  |  | 
NCI-H1563 | 0.809 | 0.869 | 0.684 | 0.506 | 0.481 | 0.448 | 0.428 | 0.411 | 0.465 | 0.455 |  |  |  |  |  | 0.902 | 1.16 | 0.955 | 0.794 | 0.711
NCI-H1703 | 1.23 | 0.947 | 0.184 | 0.135 | 0.145 |  |  |  |  |  |  |  |  |  |  | 1 | 1.46 | 1.1 | 0.437 | 0.405
NCI-H1648 |  |  |  |  |  |  |  |  |  |  | 0.437 | 0.488 | 0.666 | 0.346 | 0.203 |  |  |  |  | 
LCLC-103H |  |  |  |  |  | 0.461 | 0.486 | 0.435 | 0.161 | 0.123 | 0.824 | 0.69 | 0.779 | 0.582 | 0.294 |  |  |  |  | 
NCI-H1792 | 0.797 | 0.862 | 0.967 | 0.929 | 0.797 | 0.722 | 0.59 | 0.504 | 0.759 | 0.443 |  |  |  |  |  | 0.945 | 0.796 |  | 0.869 | 0.885
SW 900 |  |  |  |  |  | 0.74 | 0.507 | 0.167 | 0.107 | 0.116 | 0.388 | 0.623 | 0.535 | 0.211 | 0.0757 |  |  |  |  | 
EBC-1 | 0.221 | 0.228 | 0.204 | 0.164 | 0.151 |  |  |  |  |  |  |  |  |  |  | 0.204 | 0.213 | 0.227 | 0.182 | 0.189
NCI-H1299 | 0.959 | 0.93 | 0.933 | 0.463 | 0.16 |  |  |  |  |  |  |  |  |  |  | 0.911 | 0.977 | 0.932 | 0.881 | 0.308
A549 | 0.981 | 0.872 | 0.957 | 0.0567 | 0.0601 |  |  |  |  |  |  |  |  |  |  | 0.933 | 1.1 | 0.997 | 0.966 | 0.125
NCI-H1623 |  |  |  |  |  | 0.537 | 0.572 | 0.565 | 0.52 | 0.262 |  |  |  |  |  |  |  |  |  | 
IA-LM | 0.828 | 0.851 | 0.432 | 0.0336 | 0.0551 |  |  |  |  |  | 1.02 | 1.12 | 0.874 | 0.887 | 0.332 | 0.631 | 0.872 | 0.454 | 0.135 | 0.114
